Measurements taken from ChEMBL document CHEMBL3885881, “DrugMatrix”.

Species on record: Rattus norvegicus
Test: DrugMatrix - Regimen: Daily Repeat
Type: toxicity, organism-based, Sprague-Dawley
Design: regimen Daily Repeat, gender Male, age 6-8 weeks
Details: in vivo, po, route oral GAVAGE, vehicle 100 % WATER; for ABSOLUTE BASOPHIL / ABSOLUTE EOSINOPHIL / ABSOLUTE LYMPHOCYTE / ABSOLUTE MONOCYTE / ABSOLUTE SEGMENTED NEUTROPHIL / BASOPHIL / EOSINOPHIL / ERYTHROCYTE COUNT / HEMATOCRIT / HEMOGLOBIN / LEUKOCYTE COUNT / LYMPHOCYTE / MEAN CORPUSCULAR HEMOGLOBIN / MEAN CORPUSCULAR HEMOGLOBIN CONCENTRATION / MEAN CORPUSCULAR VOLUME / MONOCYTE / NEUTROPHIL / NUCLEATED RED BLOOD CELLS / PLATELET COUNT: tissue Blood; for ALANINE AMINOTRANSFERASE / ALBUMIN / ALKALINE PHOSPHATASE / ASPARTATE AMINOTRANSFERASE / BLOOD UREA NITROGEN / CARBON DIOXIDE / CHLORIDE / CHOLESTEROL / CREATINE PHOSPHOKINASE / CREATININE / GLUCOSE / LACTATE DEHYDROGENASE / LIPASE / PHOSPHORUS / POTASSIUM / SODIUM / TOTAL BILIRUBIN / TOTAL PROTEIN / URIC ACID: tissue Plasma
[1] = 0 mg/kg, 72 h, dose level Control, time 3 day
[2] = 0 mg/kg, 120 h, dose level Control, time 5 day
[3] = 20 mg/kg, 72 h, dose level Low, time 3 day

CN(C)CCC=C1c2ccccc2CCc2ccccc21 [AMITRIPTYLINE]
ABSOLUTE BASOPHIL [1]: 0 CELLS/uL
ABSOLUTE EOSINOPHIL [1]: 58.83 CELLS/uL
ABSOLUTE LYMPHOCYTE [1]: 11823.5 CELLS/uL
ABSOLUTE MONOCYTE [1]: 169 CELLS/uL
ABSOLUTE SEGMENTED NEUTROPHIL [1]: 815.33 CELLS/uL
BASOPHIL [1]: 0%
EOSINOPHIL [1]: 0.5%
ERYTHROCYTE COUNT [1]: 5.52 x10E6/uL
HEMATOCRIT [1]: 35.77%
HEMOGLOBIN [1]: 14.28 G/DL
LEUKOCYTE COUNT [1]: 12.87 x10E3/uL
LYMPHOCYTE [1]: 91.67%
MEAN CORPUSCULAR HEMOGLOBIN [1]: 25.92 pg
MEAN CORPUSCULAR HEMOGLOBIN CONCENTRATION [1]: 39.95 G/DL
MEAN CORPUSCULAR VOLUME [1]: 64.85 fL
MONOCYTE [1]: 1.33%
NEUTROPHIL [1]: 6.5%
NUCLEATED RED BLOOD CELLS [1]: 0 /100WBC
PLATELET COUNT [1]: 1246.17 x10E3/uL
ALANINE AMINOTRANSFERASE [1]: 66 u/L
ALBUMIN [1]: 4.25 G/DL
ALKALINE PHOSPHATASE [1]: 416 u/L
ASPARTATE AMINOTRANSFERASE [1]: 106.17 u/L
BLOOD UREA NITROGEN [1]: 12.67 mg/dL
CARBON DIOXIDE [1]: 31.83 mmol/L
CHLORIDE [1]: 102.5 MEQ/L
CHOLESTEROL [1]: 69 mg/dL
CREATINE PHOSPHOKINASE [1]: 601.83 u/L
CREATININE [1]: 0.18 mg/dL
GLUCOSE [1]: 154.5 mg/dL
LACTATE DEHYDROGENASE [1]: 301.83 u/L
LIPASE [1]: 11.17 u/L
PHOSPHORUS [1]: 12.08 mg/dL
POTASSIUM [1]: 6.12 MEQ/L
SODIUM [1]: 145.2 MEQ/L
TOTAL BILIRUBIN [1]: 0.17 mg/dL
TOTAL PROTEIN [1]: 6.1 G/DL
URIC ACID [1]: 1.57 mg/dL
ABSOLUTE BASOPHIL [2]: 0 CELLS/uL
ABSOLUTE EOSINOPHIL [2]: 19.33 CELLS/uL
ABSOLUTE LYMPHOCYTE [2]: 12577.83 CELLS/uL
ABSOLUTE MONOCYTE [2]: 106.33 CELLS/uL
ABSOLUTE SEGMENTED NEUTROPHIL [2]: 896.5 CELLS/uL
BASOPHIL [2]: 0%
EOSINOPHIL [2]: 0.17%
ERYTHROCYTE COUNT [2]: 5.84 x10E6/uL
HEMATOCRIT [2]: 36.88%
HEMOGLOBIN [2]: 14.48 G/DL
LEUKOCYTE COUNT [2]: 13.6 x10E3/uL
LYMPHOCYTE [2]: 92.17%
MEAN CORPUSCULAR HEMOGLOBIN [2]: 24.85 pg
MEAN CORPUSCULAR HEMOGLOBIN CONCENTRATION [2]: 39.3 G/DL
MEAN CORPUSCULAR VOLUME [2]: 63.23 fL
MONOCYTE [2]: 0.83%
NEUTROPHIL [2]: 6.83%
NUCLEATED RED BLOOD CELLS [2]: 0 /100WBC
PLATELET COUNT [2]: 1223.5 x10E3/uL
ALANINE AMINOTRANSFERASE [2]: 55.33 u/L
ALBUMIN [2]: 4.08 G/DL
ALKALINE PHOSPHATASE [2]: 355.5 u/L
ASPARTATE AMINOTRANSFERASE [2]: 87.67 u/L
BLOOD UREA NITROGEN [2]: 15.33 mg/dL
CARBON DIOXIDE [2]: 33.83 mmol/L
CHLORIDE [2]: 99.67 MEQ/L
CHOLESTEROL [2]: 72.17 mg/dL
CREATINE PHOSPHOKINASE [2]: 268.33 u/L
CREATININE [2]: 0.15 mg/dL
GLUCOSE [2]: 152.5 mg/dL
LACTATE DEHYDROGENASE [2]: 212.67 u/L
LIPASE [2]: 10.83 u/L
PHOSPHORUS [2]: 11.65 mg/dL
POTASSIUM [2]: 6.73 MEQ/L
SODIUM [2]: 142.43 MEQ/L
TOTAL BILIRUBIN [2]: 0.23 mg/dL
TOTAL PROTEIN [2]: 6.07 G/DL
URIC ACID [2]: 1.7 mg/dL
ABSOLUTE BASOPHIL [3]: 0 CELLS/uL
ABSOLUTE EOSINOPHIL [3]: 43.67 CELLS/uL
ABSOLUTE LYMPHOCYTE [3]: 12245.67 CELLS/uL
ABSOLUTE MONOCYTE [3]: 111.33 CELLS/uL
ABSOLUTE SEGMENTED NEUTROPHIL [3]: 1432.67 CELLS/uL
BASOPHIL [3]: 0%
EOSINOPHIL [3]: 0.33%
ERYTHROCYTE COUNT [3]: 5.6 x10E6/uL
HEMATOCRIT [3]: 36.3%
HEMOGLOBIN [3]: 14.5 G/DL
LEUKOCYTE COUNT [3]: 13.83 x10E3/uL
LYMPHOCYTE [3]: 88.33%
MEAN CORPUSCULAR HEMOGLOBIN [3]: 25.93 pg
MEAN CORPUSCULAR HEMOGLOBIN CONCENTRATION [3]: 39.97 G/DL
MEAN CORPUSCULAR VOLUME [3]: 64.87 fL
MONOCYTE [3]: 0.67%
NEUTROPHIL [3]: 10.67%
NUCLEATED RED BLOOD CELLS [3]: 0 /100WBC
PLATELET COUNT [3]: 1222 x10E3/uL
ALANINE AMINOTRANSFERASE [3]: 53 u/L
ALBUMIN [3]: 4.33 G/DL
ALKALINE PHOSPHATASE [3]: 377.33 u/L
ASPARTATE AMINOTRANSFERASE [3]: 92 u/L
BLOOD UREA NITROGEN [3]: 14.67 mg/dL
CARBON DIOXIDE [3]: 31.33 mmol/L
CHLORIDE [3]: 103 MEQ/L
CHOLESTEROL [3]: 67.33 mg/dL
CREATINE PHOSPHOKINASE [3]: 466 u/L
CREATININE [3]: 0.22 mg/dL
GLUCOSE [3]: 137.33 mg/dL
LACTATE DEHYDROGENASE [3]: 318.67 u/L
LIPASE [3]: 12.67 u/L
PHOSPHORUS [3]: 11.77 mg/dL
POTASSIUM [3]: 6.47 MEQ/L
SODIUM [3]: 145.83 MEQ/L
TOTAL BILIRUBIN [3]: 0.2 mg/dL
TOTAL PROTEIN [3]: 6.03 G/DL
URIC ACID [3]: 1.5 mg/dL
